The text below walks through data of patent publication US10377753B2, “Substituted 4-azaindoles and their use as GluN2B receptor modulators” (Janssen Pharmaceutica NV, priority 2015, dated 2019).

cloned human NR1/NR2B ion channels, sequence (Q13224 27-1484, other chains not shown): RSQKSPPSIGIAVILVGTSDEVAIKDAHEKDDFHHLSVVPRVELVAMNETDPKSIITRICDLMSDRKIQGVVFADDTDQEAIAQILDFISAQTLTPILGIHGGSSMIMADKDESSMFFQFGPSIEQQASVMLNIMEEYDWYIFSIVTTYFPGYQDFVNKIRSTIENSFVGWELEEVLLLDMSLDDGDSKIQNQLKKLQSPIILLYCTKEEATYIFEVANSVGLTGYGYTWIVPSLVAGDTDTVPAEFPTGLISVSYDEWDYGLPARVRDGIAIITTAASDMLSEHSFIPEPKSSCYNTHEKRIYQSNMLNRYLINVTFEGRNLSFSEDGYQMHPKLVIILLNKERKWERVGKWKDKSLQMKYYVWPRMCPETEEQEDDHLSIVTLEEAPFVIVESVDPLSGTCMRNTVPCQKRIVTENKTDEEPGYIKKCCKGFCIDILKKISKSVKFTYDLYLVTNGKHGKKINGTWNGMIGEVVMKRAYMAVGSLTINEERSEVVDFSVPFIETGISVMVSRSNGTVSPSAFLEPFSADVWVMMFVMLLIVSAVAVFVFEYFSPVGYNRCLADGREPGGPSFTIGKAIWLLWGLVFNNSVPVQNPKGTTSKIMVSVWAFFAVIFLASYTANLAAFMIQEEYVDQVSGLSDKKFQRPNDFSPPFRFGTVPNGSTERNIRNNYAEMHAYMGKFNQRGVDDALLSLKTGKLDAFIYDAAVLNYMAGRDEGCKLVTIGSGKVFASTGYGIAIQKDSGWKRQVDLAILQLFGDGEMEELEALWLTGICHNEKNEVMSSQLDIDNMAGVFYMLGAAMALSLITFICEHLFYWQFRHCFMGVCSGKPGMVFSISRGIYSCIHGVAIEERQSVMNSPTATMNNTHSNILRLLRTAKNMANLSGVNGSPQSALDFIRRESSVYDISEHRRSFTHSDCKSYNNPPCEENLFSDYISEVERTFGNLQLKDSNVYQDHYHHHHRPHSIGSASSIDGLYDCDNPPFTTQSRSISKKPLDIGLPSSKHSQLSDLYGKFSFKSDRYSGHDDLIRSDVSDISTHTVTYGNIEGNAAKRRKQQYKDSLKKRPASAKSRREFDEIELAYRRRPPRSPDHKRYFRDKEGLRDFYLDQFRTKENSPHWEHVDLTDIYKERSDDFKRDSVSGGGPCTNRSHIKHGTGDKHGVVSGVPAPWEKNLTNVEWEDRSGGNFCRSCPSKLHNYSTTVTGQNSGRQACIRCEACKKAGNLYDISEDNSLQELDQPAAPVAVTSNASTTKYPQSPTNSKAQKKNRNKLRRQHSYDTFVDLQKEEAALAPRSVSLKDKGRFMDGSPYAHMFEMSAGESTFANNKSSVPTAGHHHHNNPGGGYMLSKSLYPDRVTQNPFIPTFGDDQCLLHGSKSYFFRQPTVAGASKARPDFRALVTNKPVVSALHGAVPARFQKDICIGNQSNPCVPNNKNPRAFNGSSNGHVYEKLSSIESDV

The experiment addresses cloned human NR1/NR2B ion channels (Homo sapiens (Human), UniProt Q05586+Q13224). Nature of the experiment: HNR2BC: effects of test articles on cloned human NR1/NR2B ion channels expressed in mammalian cells (FLIPR calcium flux). In kind it is cell-based. To be noted: cloned human NR1/NR2B ion channels, Table 5. In a few lines: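 In a stable Tet-On-induced cell line expressing human GluN1/GluN2B, Calcium 5-loaded cells were preincubated 5 min with compound, then stimulated 5 min with glutamate at ~EC80 plus 10 μM glycine, in pH 7.4 HEPES buffer. FLIPR calcium fluorescence was normalized to control wells.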
(In general: Calcium flux is commonly read through the fluorescence of an indicator in the cells.)
On to `Cc1cn(CC(=O)N2CCC2)c2cc(-c3cccc(C(F)(F)F)c3)cnc12` [Example 552, 1-(Azetidin-1-yl)-2-[3-methyl-6-[3-(trifluoromethyl)phenyl]pyrrolo[3,2-b]pyridin-1-yl]ethanone], for which the IC50 (commonly the concentration that inhibits the measured activity by half) was 79.4 nM.

Regarding `Cc1cn(CC(=O)N(C)C)c2cc(-c3cccc(C(F)(F)F)c3)cnc12` [Example 553, N,N-Dimethyl-2-[3-methyl-6-[3-(trifluoromethyl)phenyl]pyrrolo[3,2-b]pyridin-1-yl]acetamide], the IC50 is 79.4 nM.

In the case of `Cc1cn(CC(=O)N2CC(F)C2)c2cc(-c3cccc(C(F)(F)F)c3)cnc12` [Example 554, 1-(3-Fluoroazetidin-1-yl)-2-[3-methyl-6-[3-(trifluoromethyl)phenyl]pyrrolo[3,2-b]pyridin-1-yl]ethanone], the IC50 is 200 nM.

On to `Cc1cn(CC(=O)N(C)C)c2cc(-c3cc(F)cc(F)c3)cnc12` [Example 555, 2-[6-(3,5-Difluorophenyl)-3-methyl-pyrrolo[3,2-b]pyridin-1-yl]-N,N-dimethyl-acetamide], for which the IC50 is 63.1 nM.

Regarding `Cc1cn(CC(=O)N2CCC2)c2cc(-c3cc(F)cc(F)c3)cnc12` [Example 556, 1-(Azetidin-1-yl)-2-[6-(3,5-difluorophenyl)-3-methyl-pyrrolo[3,2-b]pyridin-1-yl]ethanone], the IC50 was 398 nM.

Take `CCN(C)C(=O)Cn1cc(C)c2ncc(-c3cc(F)cc(F)c3)cc21` [Example 557, 2-[6-(3,5-Difluorophenyl)-3-methyl-pyrrolo[3,2-b]pyridin-1-yl]-N-ethyl-N-methyl-acetamide]: the IC50 was 126 nM.

For the compound `Cc1cn(CC(=O)N(C)C)c2cc(-c3ccc(F)cc3)cnc12` [Example 558, 2-[6-(4-Fluorophenyl)-3-methyl-pyrrolo[3,2-b]pyridin-1-yl]-N,N-dimethyl-acetamide], the IC50 is 79.4 nM.

On to `CCN(C)C(=O)Cn1cc(C)c2ncc(-c3ccc(F)cc3)cc21` [Example 559, N-Ethyl-2-[6-(4-fluorophenyl)-3-methyl-pyrrolo[3,2-b]pyridin-1-yl]-N-methyl-acetamide], for which the IC50 was 158 nM.

Take `CCN(C)C(=O)Cn1cc(C)c2ncc(-c3cccc(C)c3F)cc21` [Example 560, N-Ethyl-2-[6-(2-fluoro-3-methyl-phenyl)-3-methyl-pyrrolo[3,2-b]pyridin-1-yl]-N-methyl-acetamide]: the IC50 was 794 nM.

With `Cc1cccc(-c2cnc3c(C)cn(CC(=O)N4CCC4)c3c2)c1F` [Example 561, 1-(Azetidin-1-yl)-2-[6-(2-fluoro-3-methyl-phenyl)-3-methyl-pyrrolo[3,2-b]pyridin-1-yl]ethanone], the half-maximal inhibitory concentration (IC50) is 398 nM.

For the compound `Cc1cccc(-c2cnc3c(C)cn(CC(=O)N(C)C)c3c2)c1F` [Example 562, 2-[6-(2-Fluoro-3-methyl-phenyl)-3-methyl-pyrrolo[3,2-b]pyridin-1-yl]-N,N-dimethyl-acetamide], the IC50 is 50.1 nM.

As to `Cc1cccc(-c2cnc3c(C)cn(CC(=O)N4CC(F)C4)c3c2)c1F` [Example 563, 1-(3-Fluoroazetidin-1-yl)-2-[6-(2-fluoro-3-methyl-phenyl)-3-methyl-pyrrolo[3,2-b]pyridin-1-yl]ethanone], the IC50 was 39.8 nM.

In the case of `Cc1cccc(-c2cnc3c(C)cn(CC(=O)N4CC(F)(F)C4)c3c2)c1F` [Example 564, 1-(3,3-Difluoroazetidin-1-yl)-2-[6-(2-fluoro-3-methyl-phenyl)-3-methyl-pyrrolo[3,2-b]pyridin-1-yl]ethanone], the IC50 is 100 nM.

Regarding `Cc1cccc(-c2cnc3c(C)cn(CC(=O)N4CCCC4)c3c2)c1F` [Example 565, 2-[6-(2-Fluoro-3-methyl-phenyl)-3-methyl-pyrrolo[3,2-b]pyridin-1-yl]-1-pyrrolidin-1-yl-ethanone], the IC50 was 126 nM.

For `Cc1cc(-c2cnc3c(C)cn(CC(=O)N(C)C)c3c2)ccc1F` [Example 566, 2-[6-(4-Fluoro-3-methyl-phenyl)-3-methyl-pyrrolo[3,2-b]pyridin-1-yl]-N,N-dimethyl-acetamide], the IC50 is 50.1 nM.

Turning to `Cc1cn(CC(=O)N2CCCC2)c2cc(-c3cccc(C(F)(F)F)c3)cnc12` [Example 567, 2-[3-Methyl-6-[3-(trifluoromethyl)phenyl]pyrrolo[3,2-b]pyridin-1-yl]-1-pyrrolidin-1-yl-ethanone], the IC50 was 200 nM.

Regarding `CCN(C)C(=O)Cn1cc(C)c2ncc(-c3cccc(C(F)(F)F)c3)cc21` [Example 568, N-Ethyl-N-methyl-2-[3-methyl-6-[3-(trifluoromethyl)phenyl]pyrrolo[3,2-b]pyridin-1-yl]acetamide], the IC50 was 501 nM.

For the compound `Cc1cn(CC(=O)N2CC(F)(F)C2)c2cc(-c3cccc(C(F)(F)F)c3)cnc12` [Example 569, 1-(3,3-Difluoroazetidin-1-yl)-2-[3-methyl-6-[3-(trifluoromethyl)phenyl]pyrrolo[3,2-b]pyridin-1-yl]ethanone], the IC50 is 398 nM.

Turning to `Cc1cn(CC(=O)N2CCC2)c2cc(-c3cc(F)c(F)c(F)c3)cnc12` [Example 570, 1-(Azetidin-1-yl)-2-[3-methyl-6-(3,4,5-trifluorophenyl)pyrrolo[3,2-b]pyridin-1-yl]ethanone], the IC50 is 63.1 nM.

In the case of `Cc1cn(CC(=O)N(C)C)c2cc(-c3cc(F)c(F)c(F)c3)cnc12` [Example 571, N,N-Dimethyl-2-[3-methyl-6-(3,4,5-trifluorophenyl)pyrrolo[3,2-b]pyridin-1-yl]acetamide], the IC50 was 50.1 nM.

Take `Cc1cccc(-c2cnc3c(C)cn(CC(=O)N(C)C)c3c2)c1` [Example 572, N,N-Dimethyl-2-[3-methyl-6-(m-tolyl)pyrrolo[3,2-b]pyridin-1-yl]acetamide]: the IC50 was 79.4 nM.

With `Cc1csc(-c2cnc3c(C)cn(CC(=O)N(C)C)c3c2)c1` [Example 573, N,N-Dimethyl-2-[3-methyl-6-(4-methyl-2-thienyl)pyrrolo[3,2-b]pyridin-1-yl]acetamide], the IC50 is 126 nM.

`Cc1csc(-c2cnc3c(C)cn(CC(=O)N4CCC4)c3c2)c1` [Example 574, 1-(Azetidin-1-yl)-2-[3-methyl-6-(4-methyl-2-thienyl)pyrrolo[3,2-b]pyridin-1-yl]ethanone]: the IC50 was 79.4 nM.

For the compound `Cc1csc(-c2cnc3c(C)cn(CC(=O)N4CC(F)C4)c3c2)c1` [Example 575, 1-(3-Fluoroazetidin-1-yl)-2-[3-methyl-6-(4-methyl-2-thienyl)pyrrolo[3,2-b]pyridin-1-yl]ethanone], the IC50 was 79.4 nM.

With `Cc1cn(CC(=O)N(C)C)c2cc(-c3ccccc3)cnc12` [Example 576, N,N-Dimethyl-2-(3-methyl-6-phenyl-pyrrolo[3,2-b]pyridin-1-yl)acetamide], the IC50 was 100 nM.

Turning to `CCN(C)C(=O)Cn1cc(C)c2ncc(-c3ccccc3)cc21` [Example 577, N-Ethyl-N-methyl-2-(3-methyl-6-phenyl-pyrrolo[3,2-b]pyridin-1-yl)acetamide], the IC50 was 200 nM.

On to `Cc1cn(CC(=O)N2CC(F)C2)c2cc(-c3ccccc3)cnc12` [Example 578, 1-(3-Fluoroazetidin-1-yl)-2-(3-methyl-6-phenyl-pyrrolo[3,2-b]pyridin-1-yl)ethanone], for which the IC50 was 126 nM.

`Cc1cn(CC(=O)N2CC(F)(F)C2)c2cc(-c3ccccc3)cnc12` [Example 579, 1-(3,3-Difluoroazetidin-1-yl)-2-(3-methyl-6-phenyl-pyrrolo[3,2-b]pyridin-1-yl)ethanone]: the IC50 was 63.1 nM.

Take `Cc1cc(-c2cnc3c(C)cn(CC(=O)N4CC(F)C4)c3c2)ccc1F` [Example 580, 1-(3-Fluoroazetidin-1-yl)-2-[6-(4-fluoro-3-methyl-phenyl)-3-methyl-pyrrolo[3,2-b]pyridin-1-yl]ethanone]: the IC50 is 79.4 nM.

Turning to `Cc1cccc(-c2cnc3c(C)cn(CC(=O)N4CCC4)c3c2)c1` [Example 581, 1-(Azetidin-1-yl)-2-[3-methyl-6-(m-tolyl)pyrrolo[3,2-b]pyridin-1-yl]ethanone], the IC50 was 79.4 nM.

As for `Cc1cn(CC(=O)N2CCC2)c2cc(-c3ccc(F)c(F)c3F)cnc12` [Example 582, 1-(Azetidin-1-yl)-2-[3-methyl-6-(2,3,4-trifluorophenyl)pyrrolo[3,2-b]pyridin-1-yl]ethanone], the IC50 is 39.8 nM.

Regarding `Cc1cn(CC(=O)N(C)C)c2cc(-c3ccc(F)c(F)c3F)cnc12` [Example 583, N,N-Dimethyl-2-[3-methyl-6-(2,3,4-trifluorophenyl)pyrrolo[3,2-b]pyridin-1-yl]acetamide], the IC50 was 126 nM.

As for `CCN(C)C(=O)Cn1cc(C)c2ncc(-c3ccc(F)c(F)c3F)cc21` [Example 584, N-Ethyl-N-methyl-2-[3-methyl-6-(2,3,4-trifluorophenyl)pyrrolo[3,2-b]pyridin-1-yl]acetamide], the IC50 is 398 nM.

Turning to `Cc1cn(CC(=O)N2CCC2)c2cc(-c3cccc(C(F)(F)F)c3F)cnc12` [Example 585, 1-(Azetidin-1-yl)-2-[6-[2-fluoro-3-(trifluoromethyl)phenyl]-3-methyl-pyrrolo[3,2-b]pyridin-1-yl]ethanone], the IC50 was 251 nM.

As to `Cc1cn(CC(=O)N(C)C)c2cc(-c3cccc(C(F)(F)F)c3F)cnc12` [Example 586, 2-[6-[2-Fluoro-3-(trifluoromethyl)phenyl]-3-methyl-pyrrolo[3,2-b]pyridin-1-yl]-N,N-dimethyl-acetamide], the IC50 was 126 nM.

Regarding `CCN(C)C(=O)Cn1cc(C)c2ncc(-c3cccc(C(F)(F)F)c3F)cc21` [Example 587, N-Ethyl-2-[6-[2-fluoro-3-(trifluoromethyl)phenyl]-3-methyl-pyrrolo[3,2-b]pyridin-1-yl]-N-methyl-acetamide], the IC50 was 251 nM.

For the compound `Cc1cn(CC(=O)N2CC(F)C2)c2cc(-c3ccc(F)c(F)c3F)cnc12` [Example 588, 1-(3-Fluoroazetidin-1-yl)-2-[3-methyl-6-(2,3,4-trifluorophenyl)pyrrolo[3,2-b]pyridin-1-yl]ethanone], the IC50 is 631 nM.
